{"source": "paper PMC9133036", "about": "(Nature Communications, 2022)", "key": {"OX2R F228A": {"target": "T1, OX2R F228A (Homo sapiens, UniProt O43614, F228A)", "T1 construct": "expressed in transfected cells; host or cells: CHO-K1 stably expressing EA β-arrestin2", "T1 sequence (O43614 whole entry F228A)": "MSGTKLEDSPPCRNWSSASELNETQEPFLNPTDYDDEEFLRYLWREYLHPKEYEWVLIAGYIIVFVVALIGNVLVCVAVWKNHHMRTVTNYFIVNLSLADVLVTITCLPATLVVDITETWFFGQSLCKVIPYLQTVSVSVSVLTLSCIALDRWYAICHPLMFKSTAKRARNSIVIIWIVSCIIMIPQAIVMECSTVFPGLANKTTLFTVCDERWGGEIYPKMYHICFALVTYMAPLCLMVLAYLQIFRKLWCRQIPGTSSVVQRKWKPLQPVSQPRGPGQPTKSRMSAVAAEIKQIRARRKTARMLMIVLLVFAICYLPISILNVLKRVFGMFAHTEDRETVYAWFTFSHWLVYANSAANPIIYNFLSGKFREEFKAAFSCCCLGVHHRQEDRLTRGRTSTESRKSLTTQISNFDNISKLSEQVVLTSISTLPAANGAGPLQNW", "experiment": "β-arrestin PathHunter assay, OX2R F228A", "assay_type": "cell-based", "settings": "β-arrestin recruitment", "description": "β-Arrestin recruitment activity was measured by using the PathHunter system (DiscoveRX) according to the manufacturer’s instruction. Receptor constructs used were the full-length wild-type (or mutant) human OX2R sequences cloned into pCMV-ProLink (DiscoveRX). CHO-K1 cells stably expressing EA β-arrestin2 (DiscoveRX) were plated on 384 well white plates (Thermo Fisher) at 4000 cells/well in HamF12 (Wako Pure Chemical Industries) supplemented with 10% fetal bovine serum (Corning) and penicillin-streptomycin (Wako Pure Chemical Industries) and incubated overnight at 37 °C under 5% CO2. Cells were transfected with plasmids encoding wild type or each mutant ProLink-tagged human OX2R using FuGENE HD (Promega). […] Detection reagent was added and incubated for 1 h at room temperature. Luminescent signal was detected using an EnVision plate reader (PerkinElmer). β-arrestin assays on different constructs were performed in two or three independent experiments (each done in quadruplicate). Dose response curves (shown in Supplementary Fig. 8) were fitted to the three-parameter model ‘log(agonist) vs response’ in GraphPad Prism to determine pEC50 values."}, "OX2R T111S/T135A": {"target": "T2, OX2R T111S/T135A (Homo sapiens, UniProt O43614, T111S/T135A)", "T2 construct": "FLAG; expressed in transfected cells; host or cells: HEK293", "T2 sequence (O43614 1-444 T111S/T135A)": "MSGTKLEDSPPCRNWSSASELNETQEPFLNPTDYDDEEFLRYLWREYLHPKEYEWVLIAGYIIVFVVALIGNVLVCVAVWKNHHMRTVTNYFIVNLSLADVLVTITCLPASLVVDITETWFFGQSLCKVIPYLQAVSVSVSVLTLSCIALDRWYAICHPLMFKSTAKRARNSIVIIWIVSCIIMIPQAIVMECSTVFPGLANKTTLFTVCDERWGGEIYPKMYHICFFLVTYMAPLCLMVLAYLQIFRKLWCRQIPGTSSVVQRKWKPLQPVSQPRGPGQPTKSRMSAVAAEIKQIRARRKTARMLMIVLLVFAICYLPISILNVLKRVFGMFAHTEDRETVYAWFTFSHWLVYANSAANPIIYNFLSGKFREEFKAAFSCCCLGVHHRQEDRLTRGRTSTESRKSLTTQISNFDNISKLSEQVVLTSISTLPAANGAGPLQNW", "experiment": "IP accumulation assay, OX2R T111S/T135A", "assay_type": "cell-based", "settings": "for EC50: IP accumulation", "from_the_text": "The IP assay was adapted from a prior precedent. HEK293 cells were maintained in DMEM-high glucose (Millipore Sigma) supplemented with 5% fetal bovine serum (Corning) and penicillin-streptomycin (Millipore Sigma). Receptor constructs used were the full-length wild-type (or mutant) human OX1R and OX2R sequences cloned into pCDNA3. To enhance the Emax in the IP assay, a plasmid encoding full-length human Gαq subunit[66] was co-transfected into HEK293 cells with plasmids encoding orexin receptor constructs using Lipofectamine 3000 (Thermo Fisher). 24 h after transfection, the cells were plated on poly-D-lysine coated (Millipore Sigma) tissue culture-treated 96 well white plates with clear bottoms (Perkin Elmer) at 30,000 cells per well in Inositol-free DMEM (MP Biomedicals) supplemented with 5% fetal bovine serum, 4 mM L-glutamine (Millipore Sigma), penicillin-streptomycin, and about 5 uCi (5 ul) per ml myo-[2-3H] inositol (Perkin Elmer). The following day, the media was replaced with agonists that were diluted in HBSS (Millipore Sigma) containing 10 mM lithium chloride (Millipore Sigma) and incubated at 37 °C for 45 min. Then agonists were removed and cells were lysed on ice for 30 min with 10 mM formic acid (Millipore Sigma). 1.25 mg of poly-lysine coated YSI SPA beads (Perkin Elmer) was added to each well. The plates were mixed on an orbital shaker for 30 min. The plates were read on a MicroBeta scintillation counter (Perkin Elmer) the following day. IP accumulation assays on different constructs were performed in n ≥ 3 independent experiments (each done in duplicate), where n is shown in Supplementary Table 2."}}, "note": "Values joined by “and” are separate entries in the source; they are usually repeats but may differ in a detail not shown here. Equal values may be shown once. Read-outs that look alike come from different tables or passages of the source.", "data": [{"smiles": "COC(=O)N1CCC[C@H](NS(C)(=O)=O)[C@@H]1CO[C@H]1CC[C@@H](c2ccccc2)CC1", "note": "[TAK-925, methyl (2R,3S)−3-[(methylsulfonyl)amino]−2-{[(cis−4-phenylcyclohexyl)oxy]methyl}piperidine-1-carboxylate]", "values": [{"measurement": "EC50", "setting": "OX2R F228A", "value": 0.6, "unit": "µM"}, {"measurement": "EC50", "setting": "OX2R T111S/T135A; pEC50 ± SEM, read-out: pEC50 (converted)", "value": 3.98, "unit": "µM"}, {"measurement": "EC50", "setting": "OX2R T111S/T135A; read-out: EC50", "value": 3.6, "unit": "µM"}, {"measurement": "% IP accumulation", "setting": "OX2R T111S/T135A; TAK-925 conc (log, M) -4.00", "value": "75.61% and 80.32% and 68.16%"}, {"measurement": "% IP accumulation", "setting": "OX2R T111S/T135A; TAK-925 conc (log, M) -4.48", "value": "79.41% and 78.58% and 59.24%"}, {"measurement": "% IP accumulation", "setting": "OX2R T111S/T135A; TAK-925 conc (log, M) -4.95", "value": "63.00% and 60.94% and 53.37%"}, {"measurement": "% IP accumulation", "setting": "OX2R T111S/T135A; TAK-925 conc (log, M) -5.43", "value": "45.74% and 44.90% and 36.03%"}, {"measurement": "% IP accumulation", "setting": "OX2R T111S/T135A; TAK-925 conc (log, M) -5.91", "value": "30.51% and 19.14% and 15.90%"}, {"measurement": "% IP accumulation", "setting": "OX2R T111S/T135A; TAK-925 conc (log, M) -6.39", "value": "18.69% and 18.10% and 13.23%"}, {"measurement": "% IP accumulation", "setting": "OX2R T111S/T135A; TAK-925 conc (log, M) -8.29", "value": "6.54% and 0.00%"}, {"measurement": "% IP accumulation", "setting": "OX2R T111S/T135A; TAK-925 conc (log, M) -8.77", "value": "0.00% and 2.28% and 1.85%"}, {"measurement": "Emax", "setting": "OX2R T111S/T135A; relative to OX2R WT/TAK-925", "value": 78}]}]}
